# Laboratory results: paper PMC5484120 (Marine Drugs, 2017)
# Values joined by “and” are separate entries in the source; they are usually repeats but may differ in a detail not shown here. Identical values can stand only once.
# Biological target: T1, hα9α10 nAChR (Homo sapiens, UniProt Q9GZZ6+Q9UGM1)
# T1 construct: expressed in transfected cells; host or cells: Xenopus laevis oocytes injected with cRNA
# Assay: cell-based
# Assay type: cell-based
# T1 sequence (Q9UGM1 26-479 limits assumed): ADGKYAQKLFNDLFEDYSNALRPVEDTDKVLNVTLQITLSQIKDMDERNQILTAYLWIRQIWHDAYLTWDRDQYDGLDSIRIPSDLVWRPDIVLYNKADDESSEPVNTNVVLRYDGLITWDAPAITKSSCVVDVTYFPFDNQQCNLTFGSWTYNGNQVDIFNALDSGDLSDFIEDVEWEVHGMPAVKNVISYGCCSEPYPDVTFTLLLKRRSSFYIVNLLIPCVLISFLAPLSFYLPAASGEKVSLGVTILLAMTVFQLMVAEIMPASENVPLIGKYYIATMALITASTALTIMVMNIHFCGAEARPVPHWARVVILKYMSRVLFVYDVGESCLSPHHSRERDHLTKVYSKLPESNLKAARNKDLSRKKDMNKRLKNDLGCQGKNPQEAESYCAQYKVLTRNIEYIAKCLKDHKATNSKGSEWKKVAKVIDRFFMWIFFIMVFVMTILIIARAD
# T1 sequence (Q9GZZ6 25-450): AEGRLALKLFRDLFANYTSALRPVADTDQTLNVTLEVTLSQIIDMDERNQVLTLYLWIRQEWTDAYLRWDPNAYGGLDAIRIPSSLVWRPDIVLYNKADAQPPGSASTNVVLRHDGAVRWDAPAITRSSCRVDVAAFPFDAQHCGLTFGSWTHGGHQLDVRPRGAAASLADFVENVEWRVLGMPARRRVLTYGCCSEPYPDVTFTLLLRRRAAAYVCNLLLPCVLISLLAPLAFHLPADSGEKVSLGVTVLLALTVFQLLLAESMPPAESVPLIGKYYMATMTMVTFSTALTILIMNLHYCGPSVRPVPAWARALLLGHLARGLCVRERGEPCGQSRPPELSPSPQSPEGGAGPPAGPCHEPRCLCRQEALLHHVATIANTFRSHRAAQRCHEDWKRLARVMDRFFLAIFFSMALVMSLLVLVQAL
structure (smiles),measurement,value
CSCC[C@H](NC(=O)[C@H](CC(C)C)NC(=O)[C@H](C)N)C(=O)N[C@@H](CO)C(=O)N[C@H](C(=O)NCC(=O)N[C@H](C(=O)N[C@@H](CC(N)=O)C(=O)N[C@@H](Cc1ccc(O)cc1)C(=O)N[C@@H](CCCNC(=N)N)C(=O)N[C@@H](CC(C)C)C(=O)N[C@@H](CC(C)C)C(=O)N[C@@H](CCCCN)C(=O)N[C@H](C(=O)N[C@@H](CSCC(N)=O)C(=O)N[C@@H](CCCNC(=N)N)C(=O)NCC(=O)N[C@@H](CO)C(=O)NCC(=O)N[C@@H](CCCNC(=N)N)C(=O)N[C@@H](Cc1ccc(O)cc1)C(=O)N[C@@H](CSCC(N)=O)C(=O)N[C@@H](CCCNC(=N)N)C(=O)N[C@@H](CO)C(=O)N1CCC[C@H]1C(=O)N[C@@H](Cc1ccc(O)cc1)C(=O)O)[C@@H](C)O)[C@@H](C)O)[C@@H](C)O [GeXXVIIA-L-Nter],IC50,0.222 ± 0.014 µM
same,"inhibition of ACh-evoked current, hα9α10 nAChR",> 90% and ~ 55%
